Test results: patent EP0679081B1, “PHARMACEUTICAL COMPOSITIONS FOR PREVENTION AND TREATMENT OF CANCEROUS DISEASE AND PROCESS FOR THEIR PREPARATION” (priority 1993, dated 1995)

Test system: Sp2/0-Ag14 mouse myeloma cells
Assay: Effect on number of viable Sp2/0-Ag14 cells in culture (trypan blue dye exclusion count)
Conditions: for number of cells as compared to the number of untreated cells: substance used alone, statement in words
Method: In the experiments the newest methods approved by the scientific literature were used. In case of Sp2/0-Ag14 and K562 lines, the logarithmically growing cells were harvested from the medium and resuspended in a 96-well plate used for cell culture to a final concentration of 4x10^4 Sp2/0-Ag14 cells and 2x10^4 K562 cells, respectively, in 250 µl appropriate medium per well containing the tested materials in the indicated concentrations. In case of HeLa, HEp-2 and Vero cells, the cultured cells were harvested from 75 % confluent tissue culture flasks with 0.2 % trypsin and resuspended in the appropriate medium at a density of 10^5 cells/ml. Aliquots (100 µl) were dispensed into 96-well micro plates and incubated for 24 hours. Then the medium was discarded and replaced with 250 µl fresh medium containing the tested compounds in the indicated concentrations. All kinds of cells were allowed to proliferate for 48 hours. The number of viable Sp2/0-Ag14 and K562 cells was then counted microscopically with the trypan blue dye exclusion method. The survival of HeLa, HEp-2 and Vero cells was measured by assessing the endogenous alkaline phosphatase activity of the cells. Results were evaluated using Student's t-test. Data after the mean values in the Tables and signs in the Figures mean: "standard error of mean" (SEM).
In case of L-tryptophan for example the 2-4th control experiments show the effects of 0.002; 0.006; and 0.01 % by mass, resp., of L-tryptophan alone on the number of cells.
In Table 2 the amounts of materials expressed in % by mass and multiplied by 1000 are shown, thus the numbers in the Table should read by multiplying with 10^-3; for example in Example 21 in case of L-tryptophan the number 6 means 6 x 10^-3, that is 0.006 % by mass. The conditions of the experiments were the same as before.
To help the comparability with the earlier results Sp2/0-Ag14 cells were also used and the experimental conditions were the same as before. On the vertical axis the changes of the amounts of cells expressed in the percentage of the amounts of untreated cells are shown. On the horizontal axis the changes expressed in % of the compositions (changes of the amounts of the active ingredients) are shown. […] Thus, the 80 % composition of Example 99 contains every component in an amount of 80 %.
The composition of the control mixtures was given in connection with Table 1.
As a function of time the effect of the 100 % composition of Example 103 on Sp2/0-Ag14 cells was investigated and compared to the 100 % control mixture and to untreated cells. The experimental conditions were the same as in the previous experiments except that in this case the cells were counted not only after 48 hr but also after 6; 12; 24; and 36 hr. On the vertical axis the cell number/ml is shown. On the horizontal axis the time is shown in hours.

[1] = Table 1, number of cells after 48 hr incubation, mean ± SEM, untreated cells 59.1 ±3.2
[2] = Table 2 (first part), 48 hr, untreated cells = 100 %, mean ± SEM
[3] = Table 2 (first part), number of cells after 48 hr, mean ± SEM, untreated cells 74.3 ± 3.9
[4] = Table 2 (second part), number of cells after 48 hr, mean ± SEM, untreated cells 74.3 ± 3.9

N[C@@H](Cc1c[nH]c2ccccc12)C(=O)O [Control 2, L-tryptophan]
CHANGE OF THE NUMBER OF CELLS (x 10^4) [1]: 61.7±3.0 x 10^4
IN% OF THE UNTREATED CELLS (mouse, sp2/0-ag14 cells, 48 h): 104.4±5.0%

N[C@@H](Cc1c[nH]c2ccccc12)C(=O)O [Control 3, L-tryptophan]
CHANGE OF THE NUMBER OF CELLS (x 10^4) [1]: 62.6±2.0 x 10^4
IN% OF THE UNTREATED CELLS (mouse, sp2/0-ag14 cells, 48 h): 106.0±3.4%

N[C@@H](Cc1c[nH]c2ccccc12)C(=O)O [Control 4, L-tryptophan]
CHANGE OF THE NUMBER OF CELLS (x 10^4) [1]: 63.0±3.4 x 10^4
IN% OF THE UNTREATED CELLS (mouse, sp2/0-ag14 cells, 48 h): 106.6±5.8%

O=CC[C@H](O)[C@H](O)CO [Control 6, 2-deoxy-D-ribose]
CHANGE OF THE NUMBER OF CELLS (x 10^4) [1]: 59.3±2.3 x 10^4

O=CC[C@H](O)[C@H](O)CO [Control 7, 2-deoxy-D-ribose]
CHANGE OF THE NUMBER OF CELLS (x 10^4) [1]: 59.8±1.2 x 10^4
IN% OF THE UNTREATED CELLS (mouse, sp2/0-ag14 cells, 48 h): 101.1±2.2%

O=CC[C@H](O)[C@H](O)CO [Control 8, 2-deoxy-D-ribose]
CHANGE OF THE NUMBER OF CELLS (x 10^4) [1]: 59.0 ±3.2 x 10^4
IN% OF THE UNTREATED CELLS (mouse, sp2/0-ag14 cells, 48 h): 99.9 ±5.9%

Nc1ncnc2nc[nH]c12 [Control 10, adenine]
CHANGE OF THE NUMBER OF CELLS (x 10^4) [1]: 60.5±1.4 x 10^4
IN% OF THE UNTREATED CELLS (mouse, sp2/0-ag14 cells, 48 h): 102.4±2.5%

Nc1ncnc2nc[nH]c12 [Control 11, adenine]
CHANGE OF THE NUMBER OF CELLS (x 10^4) [1]: 58.2 ±1.8 x 10^4
IN% OF THE UNTREATED CELLS (mouse, sp2/0-ag14 cells, 48 h): 98.5 ±3.2%

Nc1ncnc2nc[nH]c12 [Control 12, adenine]
CHANGE OF THE NUMBER OF CELLS (x 10^4) [1]: 58.6 ± 1.5 x 10^4
IN% OF THE UNTREATED CELLS (mouse, sp2/0-ag14 cells, 48 h): 99.1 ± 2.8%

O=C(O)CC(O)C(=O)O (stereo not shown) [Control 14, malic acid]
CHANGE OF THE NUMBER OF CELLS (x 10^4) [1]: 58.7 ± 2.1 x 10^4
IN% OF THE UNTREATED CELLS (mouse, sp2/0-ag14 cells, 48 h): 99.3±3.7%

O=C(O)CC(O)C(=O)O (stereo not shown) [Control 15, malic acid]
CHANGE OF THE NUMBER OF CELLS (x 10^4) [1]: 60.4 ± 1.7 x 10^4
IN% OF THE UNTREATED CELLS (mouse, sp2/0-ag14 cells, 48 h): 102.2 ± 3.0%

O=C(O)CC(O)C(=O)O (stereo not shown) [Control 16, malic acid]
CHANGE OF THE NUMBER OF CELLS (x 10^4) [1]: 58.8±2.5 x 10^4
IN% OF THE UNTREATED CELLS (mouse, sp2/0-ag14 cells, 48 h): 99.5±4.5%

O=C1O[C@H]([C@@H](O)CO)C(O)=C1O [Control 18, L-ascorbic acid]
CHANGE OF THE NUMBER OF CELLS (x 10^4) [1]: 58.2±1.4 x 10^4
IN% OF THE UNTREATED CELLS (mouse, sp2/0-ag14 cells, 48 h): 98.5 ±2.5%

O=C1O[C@H]([C@@H](O)CO)C(O)=C1O [Control 19, L-ascorbic acid]
CHANGE OF THE NUMBER OF CELLS (x 10^4) [1]: 56.7±2.1 x 10^4
IN% OF THE UNTREATED CELLS (mouse, sp2/0-ag14 cells, 48 h): 96.0±3.7%

O=C1O[C@H]([C@@H](O)CO)C(O)=C1O [Control 20, L-ascorbic acid]
CHANGE OF THE NUMBER OF CELLS (x 10^4) [1]: 56.3 ±2.6 x 10^4
IN% OF THE UNTREATED CELLS (mouse, sp2/0-ag14 cells, 48 h): 95.2 ±4.8%

N[C@@H](Cc1ccccc1)C(=O)O [Control 22, L-phenylalanine]
IN % OF THE UN-TREATED CELLS [2]: 109.4 ± 4.0%
CHANGE OF THE NUMBER OF CELLS (x 10^4) [3]: 81.3 ± 3.0 x 10^4
number of cells as compared to the number of untreated cells (48 hr): slightly increased

N=C(N)NCCC[C@H](N)C(=O)O [Control 23, L-arginine]
IN % OF THE UN-TREATED CELLS [2]: 103.4 ± 1.8%
CHANGE OF THE NUMBER OF CELLS (x 10^4) [3]: 76.8 ± 1.3 x 10^4
number of cells as compared to the number of untreated cells (48 hr): slightly increased

N[C@@H](Cc1c[nH]cn1)C(=O)O [Control 24, L-histidine]
CHANGE OF THE NUMBER OF CELLS (x 10^4) [3]: 80.7 ± 2.0 x 10^4
IN % OF THE UN-TREATED CELLS (mouse, sp2/0-ag14 cells, 48 h): 108.7 ± 2.7%
number of cells as compared to the number of untreated cells (48 hr): slightly increased

O=C(O)CCCC[C@@H]1SC[C@@H]2NC(=O)N[C@@H]21 [Control 25, d-biotin]
CHANGE OF THE NUMBER OF CELLS (x 10^4) [3]: 74.2 ± 2.3 x 10^4
IN % OF THE UN-TREATED CELLS (mouse, sp2/0-ag14 cells, 48 h): 99.9 ± 3.1%

Cc1ncc(CO)c(CO)c1O [Control 26, pyridoxine]
CHANGE OF THE NUMBER OF CELLS (x 10^4) [3]: 67.6 ± 1.6 x 10^4
IN % OF THE UN-TREATED CELLS (mouse, sp2/0-ag14 cells, 48 h): 91.0 ± 2.1%

CSCC[C@H](N)C(=O)O [Control 27, L-methionine]
CHANGE OF THE NUMBER OF CELLS (x 10^4) [3]: 73.3 ± 2.7 x 10^4
IN % OF THE UN-TREATED CELLS (mouse, sp2/0-ag14 cells, 48 h): 98.7 ± 3.6%

N[C@@H](Cc1ccc(O)cc1)C(=O)O [Control 28, L-tyrosine]
IN % OF THE UN-TREATED CELLS [2]: 94.9 ± 1.5%
CHANGE OF THE NUMBER OF CELLS (x 10^4) [3]: 70.5 ± 1.1 x 10^4

Cc1cc2nc3c(=O)[nH]c(=O)nc-3n(C[C@H](O)[C@H](O)[C@H](O)CO)c2cc1C [Control 29, riboflavin]
CHANGE OF THE NUMBER OF CELLS (x 10^4) [3]: 76.9 ± 1.7 x 10^4
IN % OF THE UN-TREATED CELLS (mouse, sp2/0-ag14 cells, 48 h): 103.5 ± 2.2%
number of cells as compared to the number of untreated cells (48 hr): slightly increased

O=C[C@@H](O)[C@@H](O)[C@H](O)[C@H](O)CO [Control 30, D-mannose]
CHANGE OF THE NUMBER OF CELLS (x 10^4) [4]: 73.1 ± 1.1 x 10^4
IN % OF THE UN-TREATED CELLS (mouse, sp2/0-ag14 cells, 48 h): 98.4 ± 1.5%

O=C(O)CNC(=O)c1ccccc1 [Control 31, N-benzoylglycine]
CHANGE OF THE NUMBER OF CELLS (x 10^4) [4]: 74.2 ± 1.6 x 10^4
IN % OF THE UN-TREATED CELLS (mouse, sp2/0-ag14 cells, 48 h): 99.8 ± 2.1%

Cc1cc2nc3c(=O)[nH]c(=O)nc-3n(C[C@H](O)[C@H](O)[C@H](O)COP(=O)(O)O)c2cc1C [Control 32, riboflavin-5'-phosphate]
CHANGE OF THE NUMBER OF CELLS (x 10^4) [4]: 73.5 ± 1.3 x 10^4
IN % OF THE UN-TREATED CELLS (mouse, sp2/0-ag14 cells, 48 h): 98.9 ± 1.8%

O=C(O)c1cc(=O)[nH]c(=O)[nH]1 [Control 33, orotic acid]
CHANGE OF THE NUMBER OF CELLS (x 10^4) [4]: 70.0 ± 1.3 x 10^4
IN % OF THE UN-TREATED CELLS (mouse, sp2/0-ag14 cells, 48 h): 94.2 ± 1.7%

N[C@@H](Cc1c[nH]c2ccccc12)C(=O)O [L-tryptophan]
number of cells as compared to the number of untreated cells (48 hr): increased slightly
